Read-outs that look alike come from different tables or passages of the source.
System: HCV pseudoparticles, genotype 1a HCV E1 and E2 envelope (H77C isolate)
Experiment: HCV pseudoparticle infection assay (luciferase reporter, entry into Huh7 cells)
Format: cell-based
Conditions: Hepatitis C virus, Huh-7, 48 h
[1] = read-out: EC50 (nM) 1a (H77C), HCV pseudoparticles genotype 1a (H77C), Huh7 cells, luciferase measured 2 days after infection, average of duplicates
[2] = read-out: EC50 (nM) 1a (H77C), HCV pseudoparticles genotype 1a (H77C), Huh7 cells, luciferase measured 2 days after infection, class symbols

SMILES: CC(C)(CNC(=O)C(N)=O)CNC(=O)c1ccc(Nc2cc(NCc3ccc(Cl)cc3)nc(OCC(F)(F)F)n2)nc1 [Example 1001]
- EC50 [1]: 1.47 nM
- EC50 [2]: 0.01 to 10 nM

SMILES: CC(C)(CNC(=O)C(=O)Nc1ccccc1)CNC(=O)c1ccc(Nc2cc(NCc3ccc(Cl)cc3)nc(OCC(F)(F)F)n2)nc1 [Example 1002]
- EC50 [2]: 0.01 to 10 nM

SMILES: Cc1ccc(NC(=O)C(=O)NCC(C)(C)CNC(=O)c2ccc(Nc3cc(NCc4ccc(Cl)cc4)nc(OCC(F)(F)F)n3)nc2)cc1 [Example 1003]
- EC50 [1]: 0.214 nM
- EC50 [2]: 0.01 to 10 nM

SMILES: CC(C)CNC(=O)C(=O)NCC(C)(C)CNC(=O)c1ccc(Nc2cc(NCc3ccc(Cl)cc3)nc(OCC(F)(F)F)n2)nc1 [Example 1004]
- EC50 [2]: 0.01 to 10 nM

SMILES: CC(C)(CNC(=O)C(=O)NC1CCCCC1)CNC(=O)c1ccc(Nc2cc(NCc3ccc(Cl)cc3)nc(OCC(F)(F)F)n2)nc1 [Example 1005]
- EC50 [2]: 0.01 to 10 nM

SMILES: CN(C)C(=O)C(=O)NCC(C)(C)CNC(=O)c1ccc(Nc2cc(NCc3ccc(Cl)cc3)nc(OCC(F)(F)F)n2)nc1 [Example 1006]
- EC50 [2]: 10 to 1000 nM

SMILES: CC(C)(CNC(=O)C(=O)N1CCc2ccccc2C1)CNC(=O)c1ccc(Nc2cc(NCc3ccc(Cl)cc3)nc(OCC(F)(F)F)n2)nc1 [Example 1007]
- EC50 [2]: 0.01 to 10 nM

SMILES: CC(C)(CNC(=O)C(=O)Nc1ccc(F)cc1F)CNC(=O)c1ccc(Nc2cc(NCc3ccc(Cl)cc3)nc(OCC(F)(F)F)n2)nc1 [Example 1008]
- EC50 [2]: 0.01 to 10 nM

SMILES: CNC(=O)C(=O)NCC(C)(C)CNC(=O)c1ccc(Nc2cc(NCc3ccc(Cl)cc3)nc(OCC(F)(F)F)n2)nc1 [Example 1009]
- EC50 [2]: 0.01 to 10 nM

SMILES: CC(C)(CNC(=O)C(=O)N1CCCCC1)CNC(=O)c1ccc(Nc2cc(NCc3ccc(Cl)cc3)nc(OCC(F)(F)F)n2)nc1 [Example 1010]
- EC50 [2]: 10 to 1000 nM

SMILES: Cc1nnc(NC(=O)C(=O)NCC(C)(C)CNC(=O)c2ccc(Nc3cc(NCc4ccc(Cl)cc4)nc(OCC(F)(F)F)n3)nc2)s1 [Example 1011]
- EC50 [2]: 10 to 1000 nM

SMILES: CC(C)(CNC(=O)C(=O)Nc1ccc(F)cc1)CNC(=O)c1ccc(Nc2cc(NCc3ccc(Cl)cc3)nc(OCC(F)(F)F)n2)nc1 [Example 1012]
- EC50 [1]: 0.482 nM
- EC50 [2]: 0.01 to 10 nM

SMILES: CC(C)(CNC(=O)C(=O)Nc1nccs1)CNC(=O)c1ccc(Nc2cc(NCc3ccc(Cl)cc3)nc(OCC(F)(F)F)n2)nc1 [Example 1013]
- EC50 [2]: 0.01 to 10 nM

SMILES: CC(C)(CNC(=O)C(=O)Nc1cccc(F)c1)CNC(=O)c1ccc(Nc2cc(NCc3ccc(Cl)cc3)nc(OCC(F)(F)F)n2)nc1 [Example 1014]
- EC50 [2]: 0.01 to 10 nM

SMILES: Cc1cc(NC(=O)C(=O)NCC(C)(C)CNC(=O)c2ccc(Nc3cc(NCc4ccc(Cl)cc4)nc(OCC(F)(F)F)n3)nc2)no1 [Example 1015]
- EC50 [1]: 1.31 nM
- EC50 [2]: 0.01 to 10 nM

SMILES: CC(C)(CNC(=O)C(=O)Nc1nncs1)CNC(=O)c1ccc(Nc2cc(NCc3ccc(Cl)cc3)nc(OCC(F)(F)F)n2)nc1 [Example 1016]
- EC50 [1]: 56.8 nM
- EC50 [2]: 10 to 1000 nM

SMILES: CC(C)(CNC(=O)C(=O)N1CCOCC1)CNC(=O)c1ccc(Nc2cc(NCc3ccc(Cl)cc3)nc(OCC(F)(F)F)n2)nc1 [Example 1017]
- EC50 [1]: 26.8 nM
- EC50 [2]: 10 to 1000 nM

SMILES: CC(C)(CNC(=O)C(=O)NCc1ccc(F)cc1)CNC(=O)c1ccc(Nc2cc(NCc3ccc(Cl)cc3)nc(OCC(F)(F)F)n2)nc1 [Example 1018]
- EC50 [2]: 0.01 to 10 nM

SMILES: CC(C)(CNC(=O)C(=O)Nc1cc(F)cc(F)c1)CNC(=O)c1ccc(Nc2cc(NCc3ccc(Cl)cc3)nc(OCC(F)(F)F)n2)nc1 [Example 1019]
- EC50 [2]: 10 to 1000 nM

SMILES: CC(C)(CNC(=O)C(=O)Nc1ccc(Cl)cc1)CNC(=O)c1ccc(Nc2cc(NCc3ccc(Cl)cc3)nc(OCC(F)(F)F)n2)nc1 [Example 1020]
- EC50 [2]: 0.01 to 10 nM

— US9656992B2, “Pyrimidine compounds for the treatment of hepatitis C” (priority 2013, dated 2017)
